Measurements taken from patent US20150368248A1, “2-SUBSTITUTED-6-BIARYLMETHYLAMINO-9-CYCLOPENTYL-9H-PURINE DERIVATIVES, USE THEREOF AS MEDICAMENTS, AND PHARMACEUTICAL COMPOSITIONS” (UNIVERZITA PALACKEHO V OLOMOUCI, priority 2013, published 2015).
Read-outs that look alike come from different tables or passages of the source.

How the values were obtained:
[1] = system: caspase-3/7 activity in PLC/PRF/5 cell line; test: One-step cellular caspase-3/7 activity assay; type: cell-based, human; conditions: 24 hours incubation, relative to 0 nM = 1.00
Experimental: (§1) Measurements of proapoptotic properties of new compounds were based on quantification of enzymatic activities of caspases, concretely caspases-3/7. Activity of cellular caspase-3/7 was measured according to Carrasco et al., 2003, BioTechniques, 34(5): 1064-67. Briefly, Hep3B and PLC/PRF/5 cells were incubated in the densities of 10000 cells/well in a 96-well plate overnight. Next day, the compounds in appropriate concentrations were added and cells were incubated for the 24 hours. After incubation, 3× caspase-3/7 assay buffer (150 mM HEPES pH 7.4, 450 mM NaCl, 150 mM KCl, 30 mM MgCl2, 1.2 mM EGTA, 1.5% Nonidet P40, 0.3% CHAPS, 30% sucrose, 30 mM DTT, 3 mM PMSF) with 150 μM Ac-DEVD-AMC as a substrate (Sigma-Aldrich) was added to the wells and plates were incubated at […]. The caspase-3/7 activity was measured after 6 hours using Fluoroskan Ascent microplate reader (Labsystems) at 346 nm/442 nm (excitation/emission).

[2] = system: caspase-3/7 activity in Hep3B cell line; test: One-step cellular caspase-3/7 activity assay; type: cell-based, human; conditions: 24 hours, 0 nM = 1.00
Experimental: as §1

[3] = system: p53-regulated transcription in Arn8 cells; test: p53-dependent transcriptional activity, β-galactosidase reporter; type: cell-based; conditions: 24 h incubation
Experimental: Stronger anticancer activity of the compounds is enhanced by its positive impact on stability and activity of the tumour suppressor p53. To measure p53-dependent transcriptional activity, β-galactosidase activity was quantified in the melanoma cell line Arn8, which had been established using stable transfection of cells with a p53-responsive reporter construct pRGCAfoslacZ (Frebung et al., Cancer Res., 52, 1992-6976). Briefly, after 24 h incubation with the inhibitors the Arn8 cells were permeabilized with 0.3% Triton X-100 for 15 min and then 4-methylumbelliferon-β-D-galactopyranoside was added as a substrate to the final concentration of 80 μM. After 1 h the fluorescence of product 4-methylumbelliferon was measured at 355/460 nm (ex/em) with a Fluoroskan Ascent microplate reader (Labsystems). Data in Tab. 8 present that series of 2-substituted-6-biarylmethylamino-9-cyclopentyl-9H-purine derivatives show a dose-dependent activatory effect on p53-regulated transcription, with the maximum impact observed between 100 and 500 nM concentrations for most of prepared compounds (Tab. 8).

[4] = system: Hep3B; test: MTT cytotoxicity assay (Example 30); type: cell-based, human; conditions: MTT, three days after drug addition, read-out: Inhibitory concentration IC50, Hep3B
Experimental: (§2) Cytotoxicity of the compounds is the major property determining their anticancer effect in vivo. One of the parameters used, as the basis for cytotoxicity assays, is the metabolic activity of viable cells.
(§3) We have been using the following cell lines: HUH-7 and PLC/PRF/5 cell lines were maintained in DMEM supplemented with 10% fetal bovine serum, penicillin (100 U/ml) and streptomycin (100 μg/ml). […] HepG2 cell line was maintained in EMEM supplemented with 10% fetal bovine serum, sodium pyruvate (0.11 g/1), penicillin (100 U/ml) and streptomycin (100 μg/ml). All cell lines were cultivated at 37° C. in 5% CO2. For cytotoxicity assays, 3000 cells (10000 cells in case of HepG2 cell line) were seeded into each well of 96 well plate and the next day tested compounds were added at various concentrations in triplicates. Three days after drug addition MTT stock solution (5 mg/ml) was added into each well and incubated for 4 h. After this incubation period, produced formazan was dissolved by DMSO and final absorbance was measured at 570 nm with Synergy H4 Hybrid Multi-Mode Microplate Reader.

[5] = system: HCC-1.1 (3sp); test: MTT cytotoxicity assay (Example 30); type: cell-based; conditions: Homo sapiens, 72 h; MTT, three days after drug addition; read-out: Inhibitory concentration IC50, 3sp
Experimental: as §2, §3

[6] = system: HUH-7; test: MTT cytotoxicity assay (Example 30); type: cell-based; conditions: Homo sapiens, Huh-7, 72 h; MTT, three days after drug addition; read-out: Inhibitory concentration IC50, HUH-7
Experimental: as §2, §3

[7] = system: HCC-1.2 (3p); test: MTT cytotoxicity assay (Example 30); type: cell-based; conditions: Homo sapiens, HCC-1.2, 72 h; MTT, three days after drug addition; read-out: Inhibitory concentration IC50, 3p
Experimental: as §2, §3

[8] = system: PLC/PRF/5; test: MTT cytotoxicity assay (Example 30); type: cell-based; conditions: Homo sapiens, PLC-PRF-5, 72 h; MTT, three days after drug addition; read-out: Inhibitory concentration IC50, PLC/PRF/5
Experimental: as §2, §3

[9] = system: HepG2; test: MTT cytotoxicity assay (Example 30); type: cell-based; conditions: Homo sapiens, HepG2, 72 h; MTT, three days after drug addition; read-out: Inhibitory concentration IC50, HepG2
Description: Cytotoxicity of the compounds is the major property determining their anticancer effect in vivo. One of the parameters used, as the basis for cytotoxicity assays, is the metabolic activity of viable cells. For example, a microtiter assay, which uses (3-(4,5-Dimethylthiazol-2-yl)-2,5-diphenyltetrazolium bromide (MTT), is widely used to quantitate cell proliferation and cytotoxicity. For instance, this assay is used in drug screening programs and in chemosensitivity testing. Because only metabolically active living cells reduce MTT to correspond purple formazan dye, these assays detect viable cells exclusively. The quantity of reduced MTT corresponds to the number of vital cells in the culture.
We have been using the following cell lines: HUH-7 and PLC/PRF/5 cell lines were maintained in DMEM supplemented with 10% fetal bovine serum, penicillin (100 U/ml) and streptomycin (100 μg/ml). Unique HCC-1.2 (3p) and HCC-1.1 (3sp) cell lines (Zilj et al., 2009, Future Oncol, 5(8):1169-79) and Hep3B cells were cultivated in RPMI supplemented with 10% fetal bovine serum, penicillin (100 U/ml) and streptomycin (100 μg/ml). HepG2 cell line was maintained in EMEM supplemented with 10% fetal bovine serum, sodium pyruvate (0.11 g/1), penicillin (100 U/ml) and streptomycin (100 μg/ml). All cell lines were cultivated at 37° C. in 5% CO2. For cytotoxicity assays, 3000 cells (10000 cells in case of HepG2 cell line) were seeded into each well of 96 well plate and the next day tested compounds were added at various concentrations in triplicates. Three days after drug addition MTT stock solution (5 mg/ml) was added into each well and incubated for 4 h. After this incubation period, produced formazan was dissolved by DMSO and final absorbance was measured at 570 nm with Synergy H4 Hybrid Multi-Mode Microplate Reader.

[10] = system: human umbilical vein endothelial cells (HUVECs); test: Migration scratch assay; type: cell-based; parameters: key to Wound area: ++: open; +: partly open; 0: closed; conditions: 24 h
Experimental: Migration assay was performed as described previously (Krystof et al., 2011, Eur J Med Chem.; 46(9):4289-94). Briefly, confluent HUVECs were scratched and immediately treated for 24 h with various doses of compounds. After incubation each well was photographed using a DP Controller system (Olympus) connected to a Olympus BX50 microscope. Migration was expressed as the proportion of pixels of the wound area in the image that were not covered by cells using “in house” software.

[11] = system: human umbilical vein endothelial cells (HUVEC); test: HUVEC proliferation, Calcein AM; type: cell-based; conditions: read-out: Inhibitory concentration for HUVEC cells - IC50
Experimental: Novel 2-substituted-6-biarylmethylamino-9-cyclopentyl-9H-purine derivatives were tested for their potential anti-angiogenic properties; we analyzed its influence on the proliferation (Tab. 9), migration and tube formation of human umbilical vein endothelial cells (HUVEC). Confluent HUVECs were seeded in 96-well microtiter plates to detect their proliferation for 24 or 72 h using Calcein AM solution (Invitrogen) and a Fluoroskan Ascent microplate reader (Labsystems) as described previously (Krystof et al., 2011, Eur J Med Chem. 2011 September; 46(9):4289-94).

With `Clc1nc(NCc2ccc(Br)nc2)c2ncn(C3CCCC3)c2n1` the melting point was 178 to 179 °C.

With `NC1CCC(Nc2nc(NCc3ccc(-c4ccccc4O)cc3)c3ncn(C4CCCC4)c3n2)CC1` (centres unmarked) [BP17, N^2-(4-amino-cyclohexyl)-9-cyclopentyl-N^6-(2′-hydroxy-biphenyl-4-ylmethyl)-9H-purine-2,6-diamine] the “Relative caspase-3/7 activity in PLC/PRF/5 cell line” value ([1]; compound concentration 160 nM) was 1.08, the “Relative caspase-3/7 activity in PLC/PRF/5 cell line” value ([1]; compound concentration 320 nM) was 1.09 and the “Relative caspase-3/7 activity in PLC/PRF/5 cell line” value ([1]; compound concentration 640 nM) was 0.99. The “Relative caspase-3/7 activity in PLC/PRF/5 cell line” value ([1]; compound concentration 1280 nM) was 1.20, the “Relative caspase-3/7 activity in Hep3B cell line” value ([2]; 200 nM) was 0.89 and the “Relative caspase-3/7 activity in Hep3B cell line” value ([2]; 400 nM) was 0.87. The “Relative caspase-3/7 activity in Hep3B cell line” value ([2]; 800 nM) was 0.96, the “Relative caspase-3/7 activity in Hep3B cell line” value ([2]; 1600 nM) was 0.63 and the melting point was 168 to 170 °C. The “Concentration of maximum activation” value [3] was 950 nM.

In the case of `Clc1nc(NCc2ccc(-n3cccn3)cc2)c2ncn(C3CCCC3)c2n1` [BP23, (2-chlor-9-cyclopentyl-9H-purine-6-yl)-(4-pyrazol-1-yl-benzyl)-amine], the IC50 ([4]; Homo sapiens, Hep3B, 72 h) is reported as 432 nM, the melting point is reported as 165 to 167 °C and the IC50 [5] is reported as 468 nM.

With `Clc1nc(NCc2ccc(-c3cccs3)nc2)c2ncn(C3CCCC3)c2n1` [BP29, (2-chlor-9-cyclopentyl-9H-purine-6-yl)-(6-thiophen-2-yl-pyridin-3-ylmethyl)-amine] the IC50 ([4]; Homo sapiens, Hep3B, 72 h) was 792 nM, the melting point was 111 to 114 °C and the IC50 [5] was 843 nM.

Work on `Clc1nc(NCc2ccc(Br)cc2)c2ncn(C3CCCC3)c2n1` [BP101, (4-bromo-benzyl)-(2-chloro-9-cyclopentyl-9H-purine-6-yl)-amine] yielded a melting point of 152 to 154 °C.

`NC1CCC(Nc2nc(NCc3ccc(Br)cc3)c3ncn(C4CCCC4)c3n2)CC1` (centres unmarked) [BP102, N^2-(4-amino-cyclohexyl)-N^6-(4-bromo-benzyl)-9-cyclopentyl-9H-purine-2,6-diamine] showed an IC50 ([4]; Homo sapiens, Hep3B, 72 h) of 268 nM, an IC50 [5] of 441 nM and an IC50 [6] of 386 nM. For the same molecule, the IC50 [7] was 492 nM, the IC50 [8] was 644 nM and the IC50 [9] was > 1000 nM.

In the case of `CC(C)(O)CNc1nc(NCc2ccc(Br)cc2)c2ncn(C3CCCC3)c2n1` [BP114, 1-[6-(4-bromo-benzylamino)-9-cyclopentyl-9H-purine-2-ylamino]-2-methyl-propan-2-ol], the melting point is reported as 108 to 110 °C.

With `CC(C)(O)CNc1nc(NCc2ccc(-c3ccco3)cc2)c2ncn(C3CCCC3)c2n1` [BP115, 1-[9-Cyclopentyl-6-(4-furan-2-yl-benzylamino)-9H-purine-2-ylamino]-2-methyl-propan-2-ol] the “Relative caspase-3/7 activity in PLC/PRF/5 cell line” value ([1]; compound concentration 160 nM) was 1.17, the “Relative caspase-3/7 activity in PLC/PRF/5 cell line” value ([1]; compound concentration 320 nM) was 1.05 and the “Relative caspase-3/7 activity in PLC/PRF/5 cell line” value ([1]; compound concentration 640 nM) was 0.88. The “Relative caspase-3/7 activity in PLC/PRF/5 cell line” value ([1]; compound concentration 1280 nM) was 0.98, the “Relative caspase-3/7 activity in Hep3B cell line” value ([2]; 200 nM) was 0.94 and the “Relative caspase-3/7 activity in Hep3B cell line” value ([2]; 400 nM) was 1.05. For the same molecule, the “Relative caspase-3/7 activity in Hep3B cell line” value ([2]; 800 nM) was 1.19, the “Relative caspase-3/7 activity in Hep3B cell line” value ([2]; 1600 nM) was 0.81 and the melting point was 121 to 123 °C. For the same molecule, the “Concentration of maximum activation” value [3] was 870 nM.

In the case of `Clc1nc(NCc2ccc(-c3ccco3)nc2)c2ncn(C3CCCC3)c2n1` [BP116, (2-chloro-9-cyclopentyl-9H-purine-6-yl)-(6-furan-2-yl-pyridin-3-ylmethyl)-amine], the IC50 ([4]; Homo sapiens, Hep3B, 72 h) is reported as 298 nM, the melting point is reported as 119 to 122 °C and the IC50 [5] is reported as 371 nM.

`Clc1nc(NCc2ccc(-c3ccco3)cc2)c2ncn(C3CCCC3)c2n1` [BP118, (2-chloro-9-cyclopentyl-9H-purine-6-yl)-(4-furan-2-yl-benzyl)-amine] showed a melting point of 135 to 137 °C.

In the case of `CCC(CO)Nc1nc(NCc2ccc(-c3ccccn3)cc2)c2ncn(C(C)C)c2n1` (centres unmarked) [CR8, reference compound], the Wound area ([10]; 100 nM) is reported as 0, the Wound area ([10]; 1000 nM) is reported as “+” and the IC50 [4] is reported as > 2000 nM. The IC50 ([11]; 24 h) was > 50000 nM, the IC50 ([11]; 72 h) was 610 nM and the “Concentration of maximum activation” value [3] was 1600 nM.

`Cn1cnc2c(NCc3ccccc3)nc(NCCO)nc21` [olomoucine, reference compound] gave a Wound area ([10]; 100 nM) of 0 and a Wound area ([10]; 1000 nM) of 0.

For `CC[C@H](CO)Nc1nc(NCc2ccccc2)c2ncn(C(C)C)c2n1` [roscovitine, reference compound], the Wound area ([10]; 100 nM) was 0, the Wound area ([10]; 1000 nM) was 0 and the “Concentration of maximum activation” value [3] was >10000 nM.
